From publication PMC11576293, “New series of 4,6-diaryl pyrimidines: facile synthesis and antiproliferative activity as dual EGFR/VEGFR-2 inhibitors” (Frontiers in Chemistry, 2024)

Key:
Assay in all cases: NCI-60 single-dose screen
Type in all cases: cell-based
MALME-3M = settings: Homo sapiens, single dose 10 µM, '-' = no inhibition, read-out: % Growth Inhibition
Method in brief: (§1)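 NCI DTP single-dose screen; 10 μM compound; 60-line panel, nine cancer types.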

LOX IMVI = settings: Homo sapiens, single dose 10 µM, '-' = no inhibition, read-out: % Growth Inhibition
Method in brief: as §1

COLO 205 = settings: Homo sapiens, single dose 10 µM, '-' = no inhibition, read-out: % Growth Inhibition
Method in brief: as §1

MCF7 = settings: Homo sapiens, single dose 10 µM, '-' = no inhibition, read-out: % Growth Inhibition
Method in brief: as §1

RPMI-8226 = settings: Homo sapiens, single dose 10 µM, '-' = no inhibition, read-out: % Growth Inhibition
Method in brief: as §1

NCI-H322M = settings: Homo sapiens, single dose 10 µM, '-' = no inhibition, read-out: % Growth Inhibition
Method in brief: as §1

786-0 = settings: Homo sapiens, single dose 10 µM, '-' = no inhibition, read-out: % Growth Inhibition
Method in brief: as §1

HCT-116 = settings: Homo sapiens, single dose 10 µM, '-' = no inhibition, read-out: % Growth Inhibition
Method in brief: as §1

NCI-H522 = settings: Homo sapiens, single dose 10 µM, '-' = no inhibition, read-out: % Growth Inhibition
Method in brief: as §1

MDA-MB-435 = settings: Homo sapiens, single dose 10 µM, '-' = no inhibition, read-out: % Growth Inhibition
Method in brief: as §1

MDA-MB231/ATCC = settings: Homo sapiens, MDA-MB-231, single dose 10 µM, '-' = no inhibition, read-out: % Growth Inhibition
Method in brief: as §1

UACC-257 = settings: Homo sapiens, single dose 10 µM, '-' = no inhibition, read-out: % Growth Inhibition
Method in brief: as §1

K-562 = settings: Homo sapiens, K562, single dose 10 µM, '-' = no inhibition, read-out: % Growth Inhibition
Method in brief: as §1

KM12 = settings: Homo sapiens, single dose 10 µM, '-' = no inhibition, read-out: % Growth Inhibition
Method in brief: as §1

UO-31 = settings: Homo sapiens, single dose 10 µM, '-' = no inhibition, read-out: % Growth Inhibition
Method in brief: as §1

TK-10 = settings: Homo sapiens, single dose 10 µM, '-' = no inhibition, read-out: % Growth Inhibition
Method in brief: as §1

HL-60(TB) = settings: Homo sapiens, single dose 10 µM, '-' = no inhibition, read-out: % Growth Inhibition
NCI-H460 = settings: Homo sapiens, single dose 10 µM, '-' = no inhibition, read-out: % Growth Inhibition
Method in brief: as §1

DU-145 = settings: Homo sapiens, single dose 10 µM, '-' = no inhibition, read-out: % Growth Inhibition
Method in brief: as §1

BT-549 = settings: Homo sapiens, single dose 10 µM, '-' = no inhibition, read-out: % Growth Inhibition
Method in brief: as §1

SNB-75 = settings: Homo sapiens, single dose 10 µM, '-' = no inhibition, read-out: % Growth Inhibition
Method in brief: as §1

PC-3 = settings: Homo sapiens, single dose 10 µM, '-' = no inhibition, read-out: % Growth Inhibition
Method in brief: as §1

HOP-62 = settings: Homo sapiens, single dose 10 µM, '-' = no inhibition, read-out: % Growth Inhibition
Method in brief: as §1

HCC-2998 = settings: Homo sapiens, single dose 10 µM, '-' = no inhibition, read-out: % Growth Inhibition
Method in brief: as §1

SK-MEL-2 = settings: Homo sapiens, single dose 10 µM, '-' = no inhibition, read-out: % Growth Inhibition
Method in brief: as §1

SR = settings: Homo sapiens, single dose 10 µM, '-' = no inhibition, read-out: % Growth Inhibition
Method in brief: as §1

OVCAR-4 = settings: Homo sapiens, single dose 10 µM, '-' = no inhibition, read-out: % Growth Inhibition
Method in brief: as §1

A498 = settings: Homo sapiens, single dose 10 µM, '-' = no inhibition, read-out: % Growth Inhibition
Method in brief: as §1

HOP-92 = settings: Homo sapiens, single dose 10 µM, '-' = no inhibition, read-out: % Growth Inhibition
Method in brief: as §1

U251 = settings: Homo sapiens, U-251, single dose 10 µM, '-' = no inhibition, read-out: % Growth Inhibition
Method in brief: as §1

UACC-62 = settings: Homo sapiens, single dose 10 µM, '-' = no inhibition, read-out: % Growth Inhibition
Method in brief: as §1

SK-MEL-5 = settings: Homo sapiens, single dose 10 µM, '-' = no inhibition, read-out: % Growth Inhibition
Method in brief: as §1

OVCAR-8 = settings: Homo sapiens, single dose 10 µM, '-' = no inhibition, read-out: % Growth Inhibition
Method in brief: as §1

A549/ATCC = settings: Homo sapiens, single dose 10 µM, '-' = no inhibition, read-out: % Growth Inhibition
Method in brief: as §1

SF-268 = settings: Homo sapiens, single dose 10 µM, '-' = no inhibition, read-out: % Growth Inhibition
Method in brief: as §1

MDA-MB-468 = settings: Homo sapiens, single dose 10 µM, '-' = no inhibition, read-out: % Growth Inhibition
Method in brief: as §1

OVCAR-3 = settings: Homo sapiens, single dose 10 µM, '-' = no inhibition, read-out: % Growth Inhibition
Method in brief: as §1

SNB-19 = settings: Homo sapiens, single dose 10 µM, '-' = no inhibition, read-out: % Growth Inhibition
Method in brief: as §1

IGROV1 = settings: Homo sapiens, IGROV-1, single dose 10 µM, '-' = no inhibition, read-out: % Growth Inhibition
Method in brief: as §1

NCI/ADR-RES = settings: Homo sapiens, single dose 10 µM, '-' = no inhibition, read-out: % Growth Inhibition
Method in brief: as §1

ACHN 1 = settings: Homo sapiens, single dose 10 µM, '-' = no inhibition, read-out: % Growth Inhibition
Method in brief: as §1

CAKI-1 = settings: Homo sapiens, single dose 10 µM, '-' = no inhibition, read-out: % Growth Inhibition
Method in brief: as §1

RXF 393 = settings: Homo sapiens, single dose 10 µM, '-' = no inhibition, read-out: % Growth Inhibition
Method in brief: as §1

SK-MEL-28 = settings: Homo sapiens, single dose 10 µM, '-' = no inhibition, read-out: % Growth Inhibition
Method in brief: as §1

SN12C = settings: Homo sapiens, single dose 10 µM, '-' = no inhibition, read-out: % Growth Inhibition
Method in brief: as §1

NCI-H23 = settings: Homo sapiens, single dose 10 µM, '-' = no inhibition, read-out: % Growth Inhibition
Method in brief: as §1

EKVX = settings: Homo sapiens, single dose 10 µM, '-' = no inhibition, read-out: % Growth Inhibition
Method in brief: as §1

OVCAR-5 = settings: Homo sapiens, single dose 10 µM, '-' = no inhibition, read-out: % Growth Inhibition
Method in brief: as §1

## COc1ccc(-c2cc(-c3ccc(Cl)cc3)nc(SC(C)C)n2)cc1 [Compound 12, 4-(4-Chlorophenyl)-2-(isopropylthio)-6-(4-methoxyphenyl)pyrimidine]
MALME-3M
  inhibition at 10 µM: 1.51%
LOX IMVI
  inhibition at 10 µM: 13.6%
COLO 205
  inhibition at 10 µM: < 0%
MCF7
  inhibition at 10 µM: 28.8%
RPMI-8226
  inhibition at 10 µM: 26.7%
NCI-H322M
  inhibition at 10 µM: 4.22%
786-0
  inhibition at 10 µM: 7.48%
HCT-116
  inhibition at 10 µM: 19.6%
NCI-H522
  inhibition at 10 µM: 21.6%
MDA-MB-435
  inhibition at 10 µM: 8.92%
MDA-MB231/ATCC
  inhibition at 10 µM: 4.87%
UACC-257
  inhibition at 10 µM: 4.1%
K-562
  inhibition at 10 µM: 30.9%
KM12
  inhibition at 10 µM: 9.45%
UO-31
  inhibition at 10 µM: 15.7%
TK-10
  inhibition at 10 µM: < 0%
HL-60(TB)
  inhibition at 10 µM: 32.6%
NCI-H460
  inhibition at 10 µM: 7.21%
DU-145
  inhibition at 10 µM: 14.7%
BT-549
  inhibition at 10 µM: 2.74%
SNB-75
  inhibition at 10 µM: < 0%
PC-3
  inhibition at 10 µM: 2.88%
HOP-62
  inhibition at 10 µM: < 0%
HCC-2998
  inhibition at 10 µM: 1.06%
SK-MEL-2
  inhibition at 10 µM: 19.5%
SR
  inhibition at 10 µM: 47.1%
OVCAR-4
  inhibition at 10 µM: 11.8%
A498
  inhibition at 10 µM: < 0%
HOP-92
  inhibition at 10 µM: < 0%
U251
  inhibition at 10 µM: 7.59%
UACC-62
  inhibition at 10 µM: 19.1%
SK-MEL-5
  inhibition at 10 µM: 17.9%
OVCAR-8
  inhibition at 10 µM: 11.3%
A549/ATCC
  inhibition at 10 µM: 15.9%
SF-268
  inhibition at 10 µM: < 0%
MDA-MB-468
  inhibition at 10 µM: 35.1%
OVCAR-3
  inhibition at 10 µM: < 0%
SNB-19
  inhibition at 10 µM: 1.49%
IGROV1
  inhibition at 10 µM: < 0%
NCI/ADR-RES
  inhibition at 10 µM: 11.2%
ACHN 1
  inhibition at 10 µM: < 0%
CAKI-1
  inhibition at 10 µM: 14.1%
RXF 393
  inhibition at 10 µM: 26.4%
SK-MEL-28
  inhibition at 10 µM: < 0%
SN12C
  inhibition at 10 µM: 19.8%
NCI-H23
  inhibition at 10 µM: 10.7%
EKVX
  inhibition at 10 µM: 16.8%
OVCAR-5
  inhibition at 10 µM: < 0%
